Experimental data reported in article PMC9501983, “Transport and Permeation Properties of Dapivirine: Understanding Potential Drug-Drug Interactions” (Pharmaceutics, 2022).

Key:
UGT enzymes = tested on: UGT enzymes; parameters: method as in PMID 34959473; details: cited from earlier work
MRP4 = molecular target: T1, MRP4 (Homo sapiens, UniProt O15439); assay: ATPase assay (ADP-Glo Max) in MRP4 vesicles; assay type: biochemical; parameters: purchased Thermo Fisher Scientific; details: DPV 20 μM; prostaglandin E2 20 μM; 60 min, 37 °C
T1 sequence (O15439 1-1325): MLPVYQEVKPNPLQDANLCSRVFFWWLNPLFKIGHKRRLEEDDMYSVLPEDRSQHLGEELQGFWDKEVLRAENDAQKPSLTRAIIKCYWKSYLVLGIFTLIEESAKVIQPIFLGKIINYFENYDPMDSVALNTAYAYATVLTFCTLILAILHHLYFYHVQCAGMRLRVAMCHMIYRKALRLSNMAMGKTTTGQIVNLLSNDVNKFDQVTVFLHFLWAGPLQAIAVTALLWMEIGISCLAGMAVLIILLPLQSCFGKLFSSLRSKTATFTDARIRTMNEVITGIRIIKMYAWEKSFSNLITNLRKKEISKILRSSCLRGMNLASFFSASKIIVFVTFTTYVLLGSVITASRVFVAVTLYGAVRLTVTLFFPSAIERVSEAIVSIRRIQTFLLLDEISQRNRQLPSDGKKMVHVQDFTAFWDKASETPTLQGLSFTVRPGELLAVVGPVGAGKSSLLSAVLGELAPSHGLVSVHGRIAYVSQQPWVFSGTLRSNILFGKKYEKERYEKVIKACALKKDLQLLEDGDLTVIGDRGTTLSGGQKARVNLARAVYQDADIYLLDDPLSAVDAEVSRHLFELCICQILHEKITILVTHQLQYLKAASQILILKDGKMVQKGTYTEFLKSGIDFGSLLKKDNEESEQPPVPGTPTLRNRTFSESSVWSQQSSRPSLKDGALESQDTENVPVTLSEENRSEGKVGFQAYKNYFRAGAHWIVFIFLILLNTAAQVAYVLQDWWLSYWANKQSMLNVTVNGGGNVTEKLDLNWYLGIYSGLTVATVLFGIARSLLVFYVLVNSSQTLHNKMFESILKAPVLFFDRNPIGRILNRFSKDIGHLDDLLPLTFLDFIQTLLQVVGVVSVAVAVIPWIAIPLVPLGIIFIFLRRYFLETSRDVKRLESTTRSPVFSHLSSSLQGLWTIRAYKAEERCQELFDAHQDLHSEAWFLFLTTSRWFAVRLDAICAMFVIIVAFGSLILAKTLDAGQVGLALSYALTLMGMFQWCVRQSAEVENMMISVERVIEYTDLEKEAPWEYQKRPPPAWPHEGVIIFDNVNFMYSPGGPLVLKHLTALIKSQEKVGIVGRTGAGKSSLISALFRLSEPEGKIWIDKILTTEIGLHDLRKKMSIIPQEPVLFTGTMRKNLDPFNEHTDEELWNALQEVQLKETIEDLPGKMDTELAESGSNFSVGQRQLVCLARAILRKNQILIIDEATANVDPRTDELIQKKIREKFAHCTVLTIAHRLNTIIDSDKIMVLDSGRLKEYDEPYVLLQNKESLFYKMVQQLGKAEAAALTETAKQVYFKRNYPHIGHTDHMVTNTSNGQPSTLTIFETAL
Method: (§1) ATPase activity of MRP1 or MRP4 in transporter overexpressing membrane vesicles (10 μg of protein per assay) was measured by the ADP-Glo Max assay according to manufacturer’s protocol. The assay quantified the amount of ADP produced by the membrane vesicles over 60 min at 37 °C in the ATPase assay buffer (50 mM Tris-MOPS, 50 mM potassium chloride, 5 mM sodium azide, 2 mM dithiothreitol, 2 mM glutathione, 0.1 mM EGTA-Tris, and 10 mM magnesium chloride at pH 7.0). DPV was tested at 20 μM and compared to the baseline ATPase activity. A known MRP1 substrate, N-ethylmaleimide-S-glutathione (prepared by mixing N-ethylmaleimide and glutathione at a 1:1 molar ratio), at 10 mM and a known MRP4 substrate, prostaglandin E2, at 20 μM were used as positive controls. The reaction was initiated with 5 mM ATP and quenched with the ADP-Glo detection buffer. The amount of ADP produced was quantified by recording luminescence on a SpectraMax M3 plate reader (Molecular Devices, San Jose, CA, USA).

ENT1 = molecular target: T2, ENT1 (Homo sapiens, UniProt Q99808); assay: Cellular uptake in HEK293 ENT1 and EV cells; assay type: in vitro ADME
T2 construct: host or cells: HEK293
T2 sequence (Q99808 1-456): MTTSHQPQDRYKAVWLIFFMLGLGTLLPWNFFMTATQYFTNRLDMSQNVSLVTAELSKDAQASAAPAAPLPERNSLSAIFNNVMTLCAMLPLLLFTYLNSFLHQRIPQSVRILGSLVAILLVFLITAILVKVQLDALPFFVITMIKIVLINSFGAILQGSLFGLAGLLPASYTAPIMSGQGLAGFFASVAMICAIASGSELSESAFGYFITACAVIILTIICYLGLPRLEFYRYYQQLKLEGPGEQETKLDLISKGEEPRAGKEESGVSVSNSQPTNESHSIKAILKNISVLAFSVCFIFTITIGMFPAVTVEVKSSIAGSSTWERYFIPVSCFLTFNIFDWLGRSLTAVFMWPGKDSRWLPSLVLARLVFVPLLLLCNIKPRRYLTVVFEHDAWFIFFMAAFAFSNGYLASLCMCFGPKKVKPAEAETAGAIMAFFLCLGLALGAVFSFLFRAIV
Method: HEK293 ENT1 and HEK293 EV cells were seeded at a density of 5 x 10^4 cells per well in 24-well plates and cultured for 4 days. Before the uptake assay, cells were starved in serum-free minimum essential medium at 37 °C for 3 h to activate the ENT1 transporter. The assays were performed in Krebs-Ringer buffer with pH 7.4 supplemented with 25 mM sodium bicarbonate and 1.2 mM calcium chloride dihydrate. […] 200 nM nitrobenzylthioinosine was also used as the positive control for ENT1 inhibition.
Starved cells were first incubated with respective inhibitor solution or blank Krebs-Ringer buffer for 30 min at 37 °C. […] To terminate the assay, ice-cold Dulbecco’s phosphate-buffered saline was added to cells. Cells were then washed twice with ice-cold Dulbecco’s phosphate-buffered saline and lysed with 1% SDS at room temperature for 20 min. […] The drug uptake was normalized against protein content. Changes in drug uptake between groups were calculated using the mean uptake values of individual groups.

MRP1 = MRP1 (Homo sapiens, UniProt P33527); assay: ATPase assay (ADP-Glo Max) in MRP1 vesicles; assay type: biochemical; parameters: purchased Thermo Fisher Scientific; details: DPV 20 μM; N-ethylmaleimide-S-glutathione 10 mM; 60 min, 37 °C
Method: as §1

[1] = parameters: method as in PMID 26034880; details: DPV ring clinical study (IPM 026); cited from earlier work

MRP1, sequence (P33527 whole entry): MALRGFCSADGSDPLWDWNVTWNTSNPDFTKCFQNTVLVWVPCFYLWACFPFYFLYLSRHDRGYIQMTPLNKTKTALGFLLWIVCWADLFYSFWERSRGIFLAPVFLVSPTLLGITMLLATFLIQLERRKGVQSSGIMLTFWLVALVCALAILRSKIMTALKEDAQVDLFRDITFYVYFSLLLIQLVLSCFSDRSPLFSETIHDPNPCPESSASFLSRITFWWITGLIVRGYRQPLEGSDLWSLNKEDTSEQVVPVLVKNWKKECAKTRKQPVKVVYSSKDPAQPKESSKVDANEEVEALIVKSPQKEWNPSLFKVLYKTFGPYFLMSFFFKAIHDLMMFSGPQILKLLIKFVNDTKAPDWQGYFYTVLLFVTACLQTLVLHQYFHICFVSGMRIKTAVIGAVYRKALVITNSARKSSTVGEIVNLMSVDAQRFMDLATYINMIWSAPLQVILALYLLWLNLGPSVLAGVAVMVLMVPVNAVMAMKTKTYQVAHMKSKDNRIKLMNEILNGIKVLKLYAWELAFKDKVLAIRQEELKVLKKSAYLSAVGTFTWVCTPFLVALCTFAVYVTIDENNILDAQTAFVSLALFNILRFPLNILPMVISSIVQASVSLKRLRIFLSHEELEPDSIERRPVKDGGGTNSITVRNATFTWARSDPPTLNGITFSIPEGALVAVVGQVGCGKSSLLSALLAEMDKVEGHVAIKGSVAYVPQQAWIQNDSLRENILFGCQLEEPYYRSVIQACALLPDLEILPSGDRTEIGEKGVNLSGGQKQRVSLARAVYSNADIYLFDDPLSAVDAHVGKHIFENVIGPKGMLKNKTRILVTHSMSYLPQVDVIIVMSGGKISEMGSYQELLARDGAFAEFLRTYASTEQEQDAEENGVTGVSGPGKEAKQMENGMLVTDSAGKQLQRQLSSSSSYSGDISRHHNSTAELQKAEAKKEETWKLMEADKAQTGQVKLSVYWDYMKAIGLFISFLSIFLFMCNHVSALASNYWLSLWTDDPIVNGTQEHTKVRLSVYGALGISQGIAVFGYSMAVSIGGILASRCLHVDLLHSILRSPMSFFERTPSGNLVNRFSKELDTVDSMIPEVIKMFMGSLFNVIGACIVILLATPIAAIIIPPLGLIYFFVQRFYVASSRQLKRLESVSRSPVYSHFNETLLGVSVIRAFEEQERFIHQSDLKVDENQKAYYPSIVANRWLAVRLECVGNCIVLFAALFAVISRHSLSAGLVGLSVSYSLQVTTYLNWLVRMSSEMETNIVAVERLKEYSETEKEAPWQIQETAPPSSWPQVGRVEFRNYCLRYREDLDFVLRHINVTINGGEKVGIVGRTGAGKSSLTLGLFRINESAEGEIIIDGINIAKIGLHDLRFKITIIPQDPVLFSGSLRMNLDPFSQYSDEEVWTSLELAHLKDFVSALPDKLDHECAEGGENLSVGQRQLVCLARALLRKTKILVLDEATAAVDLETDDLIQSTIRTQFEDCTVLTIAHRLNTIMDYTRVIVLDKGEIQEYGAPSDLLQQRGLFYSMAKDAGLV

Cc1cc(C)c(Nc2ccnc(Nc3ccc(C#N)cc3)n2)c(C)c1 [DPV, dapivirine]
Substrate of UGT enzymes (UGT enzymes): not a substrate
ATPase activity in MRP4 vesicles, % of baseline (MRP4): no significant stimulation
Cellular uptake of thymidine in HEK293 ENT1 cells, reduced to % of control (ENT1; 5 nM thymidine, nitrobenzylthioinosine 200 nM, DPV 5 μM): no significant impact
Cellular uptake of DPV in HEK293 ENT1 cells compared with HEK293 EV cells (ENT1; 0.5 μM DPV, 10 min, 37 °C): similar
Substrate status for ENT1 (ENT1; cellular system): not a substrate
ATPase activity in MRP1 vesicles, % of baseline (MRP1): no significant stimulation
DPV tissue concentration [1]: 1.8 µM
